The subject of the experiment is TC71 Ewing sarcoma viability, CellTiter-Glo ATP, 72 h. Put plainly: TC71 Ewing sarcoma cell killing, confirmation, luminescence, cherry-picked samples, retest (AID 720570).

Experimental findings from PubChem BioAssay AID720570 (Broad Institute, 2013) are described below.

Molecules are shown by their SMILES. Values joined by “and” are separate entries in the source; they are usually repeats but may differ in a detail not shown here. Identical values can stand only once. A value given as a limit tells only on which side of the number the result lay.

As to `Oc1c(C(c2ccc(Cl)cc2)N2CCCC2)cc(Cl)c2cccnc12` (stereo not given), the AC35 is 6.32 µM.
As for `Oc1c(Cl)cc(Cl)c2cccnc12`, the figure is 20.7 µM.
For `CC(=O)OC1CC(OC2C(O)CC(OC3C(O)CC(OC4CCC5(C)C(CCC6C5CC(O)C5(C)C(C7=CC(=O)OC7)CCC65O)C4)OC3C)OC2C)OC(C)C1OC1OC(CO)C(O)C(O)C1O` (stereo not given) the value was 0.589 µM; for `COc1cc(C(=O)N2CCC(N3CCN(C)CC3)CC2)ccc1Nc1ncc2c(n1)N(C)c1ccccc1C(=O)N2C`, 11.4 µM; for `COC(=O)C[C@H]1CC[C@@H]2[C@H](COc3ccc(NC(=O)Nc4cccc(Cl)c4)cc3C(=O)N2C)O1`, 15 µM.
Turning to `COc1cccc(-c2cccc(-c3nc(C(=O)NCC(F)(F)F)cc4c3[C@H](CCO)N([S@@](=O)C(C)(C)C)C4)c2)c1`, the AC35 is 5.61 µM.
As for `O=C1NC(=O)N(Cc2ccccc2)C(=O)/C1=C\C=C\c1ccco1`, the figure is 10.2 µM; as for `C=C1C(=O)O[C@@H]2[C@H]1[C@@H](OC(=O)/C(C)=C/C)C/C(C)=C\C(=O)/C=C(\C)[C@@H]2O`, 9.79 µM.
As to `CC1(C)N=C(N)N=C(N)N1c1ccc(OCCCOc2ccccc2)c(Cl)c1`, the AC35 was 4.91 µM.
As for `CCN1/C(=C/C(C)=C/c2sc3ccccc3[n+]2CC)Sc2ccccc21`, the AC35 is 0.951 µM.
As to `O=C(C[C@@H]1C[C@H]2c3cc(NS(=O)(=O)c4ccc(F)cc4)ccc3O[C@H]2[C@H](CO)O1)NCc1ccc(-c2ccccc2)cc1`, the AC35 is 1.91 µM.
For `CC(C)CC#Cc1ccc([C@@H]2[C@@H](CO)N3CCCCN(S(=O)(=O)c4ccc(F)cc4)C[C@H]23)cc1` the value was 13.2 µM.
`Cc1cc(C)cc(N2C(=O)NC(=O)/C(=C\C=C\c3ccco3)C2=O)c1`: the AC35 was 11.3 µM.
Take `Cc1c(Cc2ccc3c(c2)OCO3)sc(NC(=O)C(C)(C)C)c1C#N`: the AC35 is 13.2 µM.
On to `C[C@@H]1CN([C@@H](C)CO)C(=O)c2cccc(NS(=O)(=O)c3ccccc3)c2O[C@@H]1CN(C)Cc1ccc(C(=O)Nc2ccccc2N)cc1`, for which the AC35 was 11.9 µM.
Regarding `CCOc1ccc(N=Nc2ccc(O)c3ncccc23)cc1`, the AC35 was 2.8 µM.
As for `Nc1nc(=S)c2[nH]cnc2[nH]1`, the figure is 1.54 µM; as for `Cc1nc2ncccn2c1-c1csc(Nc2ccc(O)cc2)n1`, 4.74 µM.
For `C[C@H](CO)N1C[C@H](C)[C@H](CN(C)Cc2ccc(C(=O)Nc3ccccc3N)cc2)Oc2c(cccc2N(C)C)C1=O` the value was 17.1 µM.
For `Oc1cccc(-c2nnc(-c3cccc(O)c3)nn2)c1` the value was 21.3 µM; for `C[C@@H]1CN([C@H](C)CO)C(=O)c2cc(NS(=O)(=O)c3ccc(Cl)cc3)ccc2O[C@@H]1CN(C)Cc1ccc(Cl)c(Cl)c1`, 21.5 µM; for `CN=c1scc(-c2ccccc2F)n1/N=C/c1ccc(O)c(O)c1O`, 16.1 µM.
Consider `C[C@H]1CN([C@@H](C)CO)C(=O)c2cc(NC(=O)C3CCCCC3)ccc2O[C@H]1CN(C)Cc1ccc(C(=O)Nc2ccccc2N)cc1`, for which the AC35 is 11.1 µM.
On to `CCN1C/C(=C/c2ccc(OC)c(O)c2)C(=O)/C(=C/c2ccc(OC)c(O)c2)C1`, for which the AC35 was 22.9 µM.
As for `Cc1cc(C(=O)Nc2ccc3c(c2)C(=O)N(C)[C@@H]2CC[C@H](CC(=O)N[C@H](C)c4ccccc4)O[C@H]2CO3)no1`, the figure is 14 µM; as for `O=C(N/N=C/c1cccs1)c1n[nH]c2c1CCCC2`, 17.2 µM; as for `C[C@]12CC[C@H]3[C@@H](CC[C@]4(O)C[C@@H](O)CC[C@]34C=O)[C@@]1(O)CC[C@@H]2C1=CC(=O)OC1`, 2.24 µM.
Consider `C(=N\Nc1nc2ccccc2s1)/c1ccccn1`, for which the AC35 was 3.07 µM.
For the molecule `Cc1nc(N)nc(N)c1/C=C/C(C)(C)c1ccc(Cl)cc1`, the AC35 was < 0.011 µM.
For `Cc1ccc(S(=O)(=O)Nc2ccc3c(c2)C(=O)N([C@H](C)CO)C[C@@H](C)[C@@H](CN(C)Cc2ccc(C(=O)Nc4ccccc4N)cc2)O3)cc1` the value was 11 µM; for `O=C1NC(=S)NC(=O)C1=Cc1cccn1-c1ccc(O)cc1`, 22.2 µM; for `CCc1nc(N)nc(N)c1-c1ccc(Cl)c(N=[N+]=[N-])c1`, 3.56 µM.
Regarding `CCc1nc(N)nc(N)c1-c1ccc(Cl)cc1`, the AC35 is 6.12 µM.
For `C[C@@H]1CN([C@@H](C)CO)S(=O)(=O)c2ccc(C#CC(C)(C)O)cc2O[C@H]1CN(C)Cc1ccc(-c2ccccc2)cc1` the value was 3.55 µM; for `O=c1c2ccccc2nc(/C=C/c2cc(Br)ccc2O)n1CCCO`, 13.8 µM; for `O=C(Nc1ccc2c(c1)OCO2)N1C[C@@H]2N[C@H](C1)C2c1ccc(C=Cc2ccccc2)cc1` (stereo not given in full), 12.8 µM.
For `CCc1ccc(Cn2ncc3c(C(=O)O)cc(C)nc32)cc1`, the AC35 was 20.8 µM.
For `C[C@@H]1CCCCO[C@H](CN(C)Cc2ccc(C(=O)Nc3ccccc3N)cc2)[C@@H](C)CN([C@H](C)CO)C(=O)c2cc(NS(=O)(=O)c3ccc(F)cc3)ccc2O1` the value was 12.9 µM; for `C[C@H](CO)N1C[C@H](C)[C@H](CN(C)Cc2ccc(C(=O)Nc3ccccc3N)cc2)Oc2ccc(NS(=O)(=O)c3cccs3)cc2C1=O`, 8.61 µM.
Regarding `Nc1nc(N)c2cc(Sc3ccc4ccccc4c3)ccc2n1`, the AC35 is 1.83 µM.
For `C/C(=N\NC(=O)c1n[nH]c2c1CCC2)c1cccs1` the value was 20.2 µM; for `C[C@@H]1CN([C@H](C)CO)C(=O)c2cccc(N(C)C)c2O[C@@H]1CN(C)Cc1ccc(C(=O)Nc2ccccc2N)cc1`, 16.4 µM.
For `COc1ccc(OC)c(/C=C/c2ccnc3ccccc23)c1` the value was 2.31 µM; for `C[C@@H]1O[C@@H](O[C@@H]2C=C3CCC4C(CC[C@]5(C)[C@@H](c6ccc(=O)oc6)CC[C@]45O)[C@@]3(C)CC2)[C@H](O)[C@H](O)[C@H]1O` (stereo not given in full), 0.0271 µM.
As for `COc1ccc(OC)c(-c2nnc3n2N=C(c2ccc(OC)c(OC4CCCC4)c2)CS3)c1`, the figure is 3.81 µM.
With `Cc1ccccc1S(=O)(=O)N1CC[C@@H]2[C@@H](CO)Nc3ccc(-c4ccc(C#N)cc4)cc3[C@@H]21`, the AC35 is 4.8 µM.
For `CCCN1C/C(=C/c2ccc3c(c2)OCO3)C(=O)/C(=C/c2ccc3c(c2)OCO3)C1` the value was 13.6 µM.
As for `O=C(NC(c1ccc(F)cc1)c1ccc2ccccc2n1)C1CCN(Cc2cccc(C(F)(F)F)c2)CC1` (stereo not given), the AC35 is 11.2 µM.
For the molecule `CN(c1ccc(NC(=O)CCc2c[nH]c3ccccc23)cc1)c1ccccn1`, the AC35 is 8.74 µM.
For `C[C@@H]1CN([C@H](C)CO)S(=O)(=O)c2ccc(C#CC(C)(C)O)cc2O[C@H]1CN(C)Cc1ccc(-c2ccccc2)cc1` the value was 3.05 µM.
With `Cc1ccc(C(C)C)c(OCc2ccc(C(=O)N/N=C/c3ccc(O)cc3O)cc2)c1`, the AC35 was 2.01 µM.
As to `COc1cccc(Sc2ccccc2/C=N/NC(N)=O)c1`, the AC35 was 3.12 µM.
In the case of `COc1ccccc1NC(=O)N1CCCCN2[C@H](CO)[C@H](c3ccc(-c4cccc(C)c4)cc3)[C@H]2C1`, the AC35 is 10.9 µM.
As for `COc1cccc(CN2CCC2(C)C(=O)Nc2cccc3cccnc23)c1F` (stereo not given), the figure is 14.5 µM; as for `C[C@H](CO)N1C[C@H](C)[C@H](CN(C)Cc2ccc(C(=O)Nc3ccccc3N)cc2)Oc2ccc(NC(=O)C3CC3)cc2CC1=O`, 9.49 µM.
As for `O=c1[nH]c(/C=C2\C=Nc3ccccc32)c(O)n1Cc1ccccc1F`, the figure is 20.7 µM; as for `COC(=O)C1=C(C)N(Cc2ccccc2C(F)(F)F)C(=NCc2ccc(OC)cc2)NC1c1ccc(C(F)(F)F)cc1` (stereo not given), 13.5 µM.
In the case of `CCc1ccc(/C=C2\SC(=S)N(CCCC(=O)NCCCN3CCOCC3)C2=O)cc1`, the AC35 was 22.6 µM.
For `CC(C)Oc1ccc(Br)cc1C(=O)N/N=C/c1c[nH]c2ccccc12` the value was 20.1 µM; for `CCCC[C@@H]1Cc2[nH][nH]c(=O)c2[C@H](c2ccc3ccccc3c2)O1`, 15.2 µM.
In the case of `C[C@H](CO)N1C[C@H](C)[C@H](CN(C)Cc2ccccc2)Oc2ccc(NC(=O)CCCCCC(=O)Nc3ccccc3N)cc2CC1=O`, the AC35 is 15.1 µM.
For `C[C@H](CO)N1C[C@H](C)[C@H](CN(C)Cc2ccc(Oc3ccccc3)cc2)Oc2ccc(NC(=O)Cn3cnnn3)cc2CC1=O` the value was 26.9 µM.
As for `CN(C[C@H]1N[C@@H](CO)[C@@H]1c1ccc(C2=CCCC2)cc1)C(=O)c1ccc(F)cc1`, the figure is 3.92 µM.
As for `C[C@H](O)C#Cc1ccc2c(c1)O[C@@H](CN(C)Cc1ccc(-c3ccccc3)cc1)[C@H](C)CN([C@@H](C)CO)S2(=O)=O`, the figure is 3.82 µM and 4.62 µM.
As for `C[C@@H]1CN([C@@H](C)CO)C(=O)c2cccc(NC(=O)CCCCCC(=O)Nc3ccccc3N)c2O[C@@H]1CN(C)Cc1ccc(Oc2ccccc2)cc1`, the AC35 is 10.6 µM.
In the case of `CC12CCC3C(CCC4(O)CC(O)CCC34C=NO)C1(O)CCC2C1=COC(=O)C1` (stereo not given), the AC35 was 0.97 µM.
As for `C[C@]12CC[C@H](O)C[C@H]1CC[C@@H]1[C@@H]2C[C@@H](O)[C@]2(C)[C@@H](C3=CC(=O)OC3)CC[C@]12O`, the figure is 3.35 µM; as for `C[C@@H]1CN([C@@H](C)CO)C(=O)c2cccc(NS(=O)(=O)c3ccc(Cl)cc3)c2O[C@@H]1CN(C)Cc1ccc(C(=O)Nc2ccccc2N)cc1`, 9.9 µM; as for `O=c1[nH]c(=O)n([C@H]2C[C@H](O)[C@@H](CO)O2)cc1C(F)(F)F`, 2.91 µM.
For `Nc1sc(-c2ccccc2)cc1-c1n[nH]c(=S)n1C1CCCCC1` the value was 4.99 µM; for `Cc1ccc2c(=O)n3c(nc2c1)C(Cc1ccc(O)cc1)NC(=O)c1cc2ccccc2cc1-3` (stereo not given), 9.76 µM; for `CC1(C)N=C(N)N=C(N)N1c1ccc(CCCCc2ccccc2)cc1`, 1.39 µM.
As for `Cc1nc(N)nc(N)c1CCCc1ccc(Cl)c(Cl)c1`, the figure is 1.81 µM; as for `C[C@H]1CN([C@@H](C)CO)S(=O)(=O)c2ccc(C#Cc3ccncc3)cc2O[C@@H]1CN(C)C(=O)Nc1ccc2c(c1)OCO2`, 4.14 µM; as for `CCOc1cc(/C=N/Nc2cc(C)nc(-n3nc(C)cc3C)n2)ccc1O`, 7.76 µM.
Turning to `Cc1cc(C)cc(C(=O)NC(=S)Nc2ccc(Cc3ccncc3)cc2)c1`, the AC35 was 7.66 µM.
Turning to `N#CC1C=Cc2c(ccc3ccccc23)N1C(=O)c1ccccc1` (stereo not given), the AC35 is 1.45 µM.
For the molecule `O=C(CCc1ccccc1)NC(c1cccs1)c1cc(Cl)c2cccnc2c1O` (stereo not given), the AC35 is 2.81 µM.
For `Cc1ccc(/C=N/Nc2ccnc3cc(Cl)ccc23)c(C)c1` the value was 11.8 µM; for `N#C[C@@H]1[C@H](c2ccc(C#Cc3ccc(F)cc3)cc2)[C@@H](CO)N1C(=O)Nc1ccc(F)cc1`, 10.9 µM.
